{"source": "patent US20180215769A1", "about": "“POLYCYCLIC-CARBAMOYLPYRIDONE COMPOUNDS AND THEIR PHARMACEUTICAL USE” (priority 2012, published 2018)", "format_in_all_cases": "cell-based", "key": {"[1]": {"system": "HIV-IIIb", "assay": "Antiviral assay in MT4 cells", "settings": "Human immunodeficiency virus 1, IIIB, MT4, 120 h", "quoted_text": "(§3) For the antiviral assay utilizing MT4 cells, 0.4 μL of 189× test concentration of 3-fold serially diluted compound in DMSO was added to 40 μL of cell growth medium (RPMI 1640, 10% FBS, 1% penicilline/Streptomycine, 1% L-Glutamine, 1% HEPES) in each well of 384-well assay plates (10 concentrations) in quidruplicate.\n(§4) 1 mL aliquots of 2×10^6 MT4 cells are pre-infected for 1 and 3 hours respectively at 37° C. with 25 μL (MT4) or of either cell growth medium (mock-infected) or a fresh 1:250 dilution of an HIV-IIIb concentrated ABI stock (0.004 m.o.i. for MT4 cells). Infected and uninfected cells are diluted in cell growth medium and 35 μL of 2000 (for MT4) cells is added to each well of the assay plates.\n(§5) Assay plates were then incubated in a 37° C. incubator. After 5 days of incubation, 25 μL of 2× concentrated CellTiter-Glo™ Reagent (catalog # G7573, Promega Biosciences, Inc., Madison, Wis.) was added to each well of the assay plate. Cell lysis was carried out by incubating at room temperature for 2-3 minutes, and then chemiluminescence was read using the Envision reader (PerkinElmer)."}, "[2]": {"assay": "Cytotoxicity (CC50) in MT4 cells, CellTiter-Glo", "settings": "human", "quoted_text": "as §3, §4, §5"}, "[3]": {"molecular_target": "T1, human PXR (NR1I2) (Homo sapiens, UniProt O75469)", "T1 construct": "expressed in transfected cells; host or cells: DPX2 (stably transformed tumor cell line)", "T1 sequence (O75469 1-434)": "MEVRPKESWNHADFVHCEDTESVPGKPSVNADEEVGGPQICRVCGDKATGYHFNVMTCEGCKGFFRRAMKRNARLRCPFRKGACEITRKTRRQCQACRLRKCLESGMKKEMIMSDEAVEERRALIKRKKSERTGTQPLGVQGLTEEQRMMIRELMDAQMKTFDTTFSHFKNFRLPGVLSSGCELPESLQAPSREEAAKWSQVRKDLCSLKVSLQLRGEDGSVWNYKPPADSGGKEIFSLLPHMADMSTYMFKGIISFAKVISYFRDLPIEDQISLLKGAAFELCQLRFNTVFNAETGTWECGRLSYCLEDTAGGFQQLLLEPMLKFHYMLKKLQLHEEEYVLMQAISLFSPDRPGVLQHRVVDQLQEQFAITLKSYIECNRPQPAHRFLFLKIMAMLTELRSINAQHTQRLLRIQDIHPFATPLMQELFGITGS", "assay": "Human PXR activation assay, luciferase reporter gene in DPX2 cells", "settings": "human, relative to maximum fold induction by 10 or 20 uM rifampicin", "method": "(§1) Luciferase Reporter Gene Assay.\n(§2) A stably transformed tumor cell line (DPX2) plated on 96-well microtiter plates. DPX2 cells harbor the human PXR gene (NR1I2) and a luciferase reporter gene linked to two promoters identified in the human CYP3A4 gene, namely XREM and PXRE. The cells are treated with six concentrations of compounds (0.15˜50 µM) and incubated for 24 hr. The number of viable cells will be determined and the reporter gene activity is assessed. Positive control: Rifampicin at 6 concentrations (0.1˜20 µM). % Emax relative to the maximum fold induction by 10 or 20 µM RIF is calculated for test compounds according to the following equation which adjusts for the DMSO background: % Emax=(Fold induction−1)/(Maximum fold induction by RIF−1)×100%."}, "[4]": {"molecular_target": "T2, human PXR (Homo sapiens, UniProt O75469)", "T2 construct": "expressed in transfected cells; host or cells: DPX2 (stably transformed tumor cell line)", "T2 sequence (O75469 1-434)": "T1 sequence (O75469 1-434)", "assay": "Human PXR activation assay, luciferase reporter gene in DPX2 cells", "settings": "24 hr, relative to maximum fold induction by 10 or 20 uM rifampicin", "method": "as §1, §2"}, "[5]": {"settings": "MT-4 cells infected with HIV-IIIb, 5 days incubation, read-out: EC50"}}, "note": "Like-named read-outs stand apart in the source and are kept apart here.", "data": [{"molecule": "C[C@@H](NC(=O)c1cn2c(c(O)c1=O)C(=O)N1[C@H]3CC[C@H](C3)O[C@@H]1C2)c1ccc(F)cc1F", "note": "[Compound 12]", "values": [{"measurement": "EC50", "setting": "[1]; [5]", "result": 5.4, "unit": "nM"}, {"measurement": "CC50 at 5 days", "setting": "[2]", "result": 3230, "unit": "nM"}]}, {"molecule": "C[C@@H](NC(=O)c1cn2c(c(O)c1=O)C(=O)N1[C@@H]3CC[C@@H](C3)O[C@H]1C2)c1ccc(F)cc1F", "note": "[Compound 11]", "values": [{"measurement": "EC50", "setting": "[1]; [5]", "result": 4.4, "unit": "nM"}]}, {"molecule": "C[C@@H](NC(=O)c1cn2c(c(O)c1=O)C(=O)N1[C@H]3CC[C@H](C3)O[C@@H]1C2)c1ccc(F)cc1", "note": "[Compound 10]", "values": [{"measurement": "Emax at 24 hr, 15 µM", "setting": "[3]", "result": 0.19, "unit": "%"}]}, {"molecule": "O=C(N[C@@H](c1ccc(F)cc1F)C(F)(F)F)c1cn2c(c(O)c1=O)C(=O)N1C(C2)O[C@H]2CC[C@@H]1C2", "note": "(stereo partly drawn) [Compound 36]", "values": [{"measurement": "EC50", "setting": "[1]; [5]", "result": 3.5, "unit": "nM"}, {"measurement": "CC50 at 5 days", "setting": "[2]", "result": 13500, "unit": "nM"}]}, {"molecule": "O=C(NCc1ccc(F)cc1F)c1cn2c(c(O)c1=O)C(=O)N1C(C2)[N@]2CC[C@H]1C2", "note": "(stereo partly drawn) [Compound 6]", "values": [{"measurement": "CC50 at 5 days", "setting": "[2]", "result": 53200, "unit": "nM"}]}, {"molecule": "C[C@H]1CO[C@@H]2Cn3cc(C(=O)NC4(c5ccc(F)cc5F)CC4)c(=O)c(O)c3C(=O)N12", "note": "[Compound 37, (3S,11aR)—N-(1-(2,4-difluorophenyl)cyclopropyl)-6-hydroxy-3-methyl-5,7-dioxo-2,3,5,7,11,11a-hexahydrooxazolo[3,2-a]pyrido[1,2-d]pyrazine-8-carboxamide]", "values": [{"measurement": "% Emax", "setting": "[4]", "result": 1.5, "unit": "%"}]}, {"molecule": "O=C(NC1(c2ccc(F)cc2F)CC1)c1cn2c(c(O)c1=O)C(=O)N1C(C2)O[C@H]2CCC[C@@H]1C2", "note": "(stereo partly drawn) [Compound 28]", "values": [{"measurement": "% Emax", "setting": "[4]", "result": 6.1, "unit": "%"}]}, {"molecule": "O=C(NCc1ccc(F)c(C(F)(F)F)c1)c1cn2c(c(O)c1=O)C(=O)N1[C@@H]3CC[C@@H](C3)O[C@H]1C2", "note": "[Compound 25]", "values": [{"measurement": "EC50", "setting": "[1]; [5]", "result": 17.9, "unit": "nM"}, {"measurement": "CC50 at 5 days", "setting": "[2]", "result": 7070, "unit": "nM"}]}, {"molecule": "C[C@@H](NC(=O)c1cn2c(c(O)c1=O)C(=O)N1[C@@H]3CC[C@@H](C3)O[C@H]1C2)c1ccc(F)cc1", "note": "[Compound 9]", "values": [{"measurement": "Emax at 24 hr, 15 µM", "setting": "[3]", "result": 0.07, "unit": "%"}]}, {"molecule": "O=C(NCc1ccc(F)cc1F)c1cn2c(c(O)c1=O)C(=O)N1C(C2)O[C@@H]2CCC[C@H]1C2", "note": "(stereo partly drawn) [Compound 8]", "values": [{"measurement": "% Emax", "setting": "[4]", "result": 6.6, "unit": "%"}]}, {"molecule": "O=C(NCc1cc(F)cc(F)c1)c1cn2c(c(O)c1=O)C(=O)N1[C@@H]3CC[C@@H](C3)O[C@H]1C2", "note": "[Compound 24]", "values": [{"measurement": "EC50", "setting": "[1]", "result": 3.4, "unit": "nM"}, {"measurement": "CC50 at 5 days", "setting": "[2]; MT4 cells, MT-4 cells, 5 days incubation, read-out: CC50", "result": 12600, "unit": "nM"}]}, {"molecule": "O=C(NCc1ccc(F)cc1F)c1cn2c(c(O)c1=O)C(=O)N1C(C2)[N@@]2CCC[C@@H]1C2", "note": "(stereo partly drawn) [Compound 20]", "values": [{"measurement": "% Emax", "setting": "[4]", "result": 2.4, "unit": "%"}]}, {"molecule": "O=C(NCc1ccc(F)cc1F)c1cn2c(c(O)c1=O)C(=O)N1[C@@H]3CC[C@@H](C3)O[C@H]1C2", "note": "[Compound 3]", "values": [{"measurement": "EC50", "setting": "[1]; [5]", "result": 1.9, "unit": "nM"}, {"measurement": "CC50 at 5 days", "setting": "[2]", "result": 36200, "unit": "nM"}, {"measurement": "Emax at 24 hr, 15 µM", "setting": "[3]", "result": 5, "unit": "%"}]}, {"molecule": "O=C(NCc1ccc(F)cc1F)c1cn2c(c(O)c1=O)C(=O)N1C(C2)[N@]2CCC[C@H]1C2", "note": "(stereo partly drawn) [Compound 19]", "values": [{"measurement": "% Emax", "setting": "[4]", "result": 1.5, "unit": "%"}]}, {"molecule": "O=C(NC1(c2ccc(F)cc2F)CC1)c1cn2c(c(O)c1=O)C(=O)N1C(C2)O[C@H]2CC[C@@H]1C2", "note": "(stereo partly drawn) [Compound 27]", "values": [{"measurement": "EC50", "setting": "[1]; [5]", "result": 4, "unit": "nM"}]}, {"molecule": "O=C(NCc1ccccc1F)c1cn2c(c(O)c1=O)C(=O)N1[C@@H]3CC[C@@H](C3)O[C@H]1C2", "note": "[Compound 23]", "values": [{"measurement": "EC50", "setting": "[1]; [5]", "result": 1.8, "unit": "nM"}, {"measurement": "CC50 at 5 days", "setting": "[2]", "result": 11500, "unit": "nM"}]}, {"molecule": "O=C(NCc1ccc(F)cc1F)c1cn2c(c(O)c1=O)C(=O)N1C(C2)[N@@]2CC[C@@H]1C2", "note": "(stereo partly drawn) [Compound 4, (1 S,4R)—N-(2,4-difluorobenzyl)-7-hydroxy-6,8-dioxo-3,4,6,8,12,12a-hexahydro-2H-1,4-methanopyrido[1′,2′:4,5]pyrazino[1,2-a]pyrimidine-9-carboxamide]", "values": [{"measurement": "% Emax", "setting": "[4]", "result": 3.2, "unit": "%"}]}, {"molecule": "O=C(NCc1ccc(F)cc1F)c1cn2c(c(O)c1=O)C(=O)N1C(C2)O[C@H]2CCC[C@@H]1C2", "note": "(stereo partly drawn) [Compound 7]", "values": [{"measurement": "% Emax", "setting": "[4]", "result": 6.5, "unit": "%"}]}, {"molecule": "O=C(NC1(c2ccc(F)cc2F)CCCCC1)c1cn2c(c(O)c1=O)C(=O)N1C(C2)O[C@H]2CC[C@@H]1C2", "note": "(stereo partly drawn) [Compound 34]", "values": [{"measurement": "EC50", "setting": "[1]", "result": 456, "unit": "nM"}]}, {"molecule": "O=C(NCc1ccc(Cl)c(F)c1)c1cn2c(c(O)c1=O)C(=O)N1[C@@H]3CC[C@@H](C3)O[C@H]1C2", "note": "[Compound 26]", "values": [{"measurement": "EC50", "setting": "[1]; [5]", "result": 8, "unit": "nM"}, {"measurement": "CC50 at 5 days", "setting": "[2]", "result": 11500, "unit": "nM"}]}, {"molecule": "O=C(NC1(c2ccc(F)cc2F)CC1)c1cn2c(c(O)c1=O)C(=O)N1C(C2)O[C@@H]2CCC[C@H]1C2", "note": "(stereo partly drawn) [Compound 29]", "values": [{"measurement": "% Emax", "setting": "[4]", "result": 3.2, "unit": "%"}]}, {"molecule": "O=C(NCc1ccc(F)c(F)c1)c1cn2c(c(O)c1=O)C(=O)N1[C@@H]3CC[C@@H](C3)O[C@H]1C2", "note": "[Compound 18]", "values": [{"measurement": "% Emax", "setting": "[4]", "result": 4.4, "unit": "%"}]}, {"molecule": "O=C(NCc1ccc(F)cc1F)c1cn2c(c(O)c1=O)C(=O)N1[C@H]3CC[C@H](C3)O[C@@H]1C2", "note": "[Compound 2]", "values": [{"measurement": "EC50", "setting": "[1]; [5]", "result": 1.9, "unit": "nM"}, {"measurement": "CC50 at 5 days", "setting": "[2]", "result": 2960, "unit": "nM"}, {"measurement": "Emax at 24 hr, 15 µM", "setting": "[3]", "result": 2.8, "unit": "%"}]}]}
